Consider 2 molecules from patent publication US20250268980A1, “AN ANTICANCER THERAPY TARGETING RAS AND OTHER ONCOGENIC SIGNALS BY INHIBITION OF DYNAMIC BLEBBING AND/OR SEPTINS” (THE BOARD OF REGENTS OF THE UNIVERSITY OF TEXAS SYSTEM, priority 2022, published 2025).

One test relates to MEF cells. Kind of test: Caspase activity assay (CellEvent Caspase-3/7) in MEF cells expressing DYN2 (K44A). Format: cell-based, mouse. The following applies: 10 μg/mL WGA or 50 μM FCF; for anoikis resistance acquired by DYN2 (K44A) expression: MEF DYN2 (K44A); for caspase activation: detached MEF DYN2 (K44A), 4 hours. The text has this: Inhibitors. Wheat Germ Agglutinin (WGA) was purchased from Sigma (product #L9640). Forchlorfenuron (FCF) was purchased from Sigma (product #C2791). VitroGel and VitroGel-RGD were purchased from TheWell Bioscience (sku #s TWG001 and TWG002). H1152 was purchased from Tocris (catalogue #2414). NSC6683394 was purchased from Sigma (product #341216). Dabrafenib (GSK2118436), and Trametinib (GSK1120212) were purchased from Selleckchem. Transient expression of dominant negative Dyn2 (K44A) 66,67 was achieved through adenovirus transduction68 as previously described69 with cells analyzed 16-18 hours after transduction.
(§1) Detached/Adhered Cell Culture. […] Drug treatments, solvent-only controls, or CellEvent caspase activity sensor were added to suspensions if appropriate to the experiment, and then immediately transferred to both an uncoated (for detached cells) and ibiTreated (for adhered cells) 8-well ibidi u-slide (ibidi cat #80821 and 80826) at 200 μl/well. Both slides were stored at 37° C. and 5% CO2 for either 24 hours (hrs) for viability assays, 3 hrs for ERK activity assays or 4 hours for caspase activation assays. Uncoated slides (detached) were nutated at 20 rpm during this time. […] For experiments using MAPKi A375 cells, Dabrafenib and Trametinib treatment was continued over the course of the experiment.
Viability, ERK Activity, and Caspase ActivityCell Counting Assays. Viability, ERK activity, and caspase activity assays were analyzed using live-cell fluorescent and phase-contrast microscopy, performed on a Nikon Ti microscope equipped with an environmental chamber held at 37° C. and 5% CO2 at 20× magnification. For viability assays, cells were stained with ethidium homodimer-1 (Invitrogen cat #E1169) at 4 µM and Hoechst (ThermoFisher cat #H3570) at 10 μg/ml for 15 minutes before imaging. Live and dead cells (as identified by significant cellular ethidium signal) were counted using the Cell Counter ImageJ plugin. For ERK activity assays, live cells carrying ERK-nKTR-GFP and H2B-mCherry were imaged after 3 hours of experimental conditions and high/low ERK activity cells were counted with Cell Counter ImageJ plugin. Cells in which nuclear GFP signals were by eye higher than cytoplasmic signal (“brighter” nucleus visible within “darker” cytoplasm) were labelled ERK low, while cytoplasmic signals equal to or higher than nuclear signal (nucleus indistinguishable from cytoplasm or “darker” nucleus within “brighter” cytoplasm) were labelled ERK high. To control for unconscious bias in making this determination, the identity of all ERK experimental groups were blinded from the analyst. […] Caspase positive and negative cells (as identified by significant cellular CellEvent signal) were counted using the Cell Counter ImageJ plugin.

The next test has as its system MV3 cells. Kind of test: Detached/adhered viability assay, ethidium homodimer staining, MV3. Format: cell-based, human. The following applies: for cell death: 24 hours of WGA. Here is the method: (§2) Bleb formation was inhibited using wheat germ agglutinin (WGA), a lectin that reduces plasma membrane deformability by crosslinking components of the glycocalyx. […] To investigate putative bleb function as a driver of anchorage-independent cell survival assays were designed that consistently minimized both cell-substrate and cell-cell attachment over a period of 24 hours. This was accomplished by seeding cells at very low density (approx. 250 or 100 cells/ml) in non-adherent culture dishes under constant gentle agitation. For controls, cells were grown at identical concentrations in adherent variants of the same culture dishes. Together, this generated pairs of ‘detached’ and ‘adhered’ cell populations in paired same-day experiments.
as §1, with “experiment. […]” for “experiment.”
Viability, ERK Activity, and Caspase ActivityCell Counting Assays. Viability, ERK activity, and caspase activity assays were analyzed using live-cell fluorescent and phase-contrast microscopy, performed on a Nikon Ti microscope equipped with an environmental chamber held at 37° C. and 5% CO2 at 20× magnification. […] Live and dead cells (as identified by significant cellular ethidium signal) were counted using the Cell Counter ImageJ plugin. For ERK activity assays, live cells carrying ERK-nKTR-GFP and H2B-mCherry were imaged after 3 hours of experimental conditions and high/low ERK activity cells were counted with Cell Counter ImageJ plugin. […]

A further test relates to M498 cells. Kind of test: Detached/adhered viability assay, ethidium homodimer staining, M498. The test is classed as cell-based, human. The note with it: for cell death: 24 hours of WGA. As to the method: as §2
Detached/Adhered Cell Culture. […] Drug treatments, solvent-only controls, or CellEvent caspase activity sensor were added to suspensions if appropriate to the experiment, and then immediately transferred to both an uncoated (for detached cells) and ibiTreated (for adhered cells) 8-well ibidi u-slide (ibidi cat #80821 and 80826) at 200 μl/well. Both slides were stored at 37° C. and 5% CO2 for either 24 hours (hrs) for viability assays, 3 hrs for ERK activity assays or 4 hours for caspase activation assays. Uncoated slides (detached) were nutated at 20 rpm during this time. […]
Viability, ERK Activity, and Caspase ActivityCell Counting Assays. Viability, ERK activity, and caspase activity assays were analyzed using live-cell fluorescent and phase-contrast microscopy, performed on a Nikon Ti microscope equipped with an environmental chamber held at 37° C. and 5% CO2 at 20× magnification. […] Live and dead cells (as identified by significant cellular ethidium signal) were counted using the Cell Counter ImageJ plugin. For ERK activity assays, live cells carrying ERK-nKTR-GFP and H2B-mCherry were imaged after 3 hours of experimental conditions and high/low ERK activity cells were counted with Cell Counter ImageJ plugin. […] Caspase positive and negative cells (as identified by significant cellular CellEvent signal) were counted using the Cell Counter ImageJ plugin.

As to wheat germ agglutinin [WGA], in the test with MEF cells, the “anoikis resistance acquired by DYN2 (K44A) expression” value is “reversed”. The caspase activation result in the test on MEF cells was “returned to levels seen in matched non-blebbing control cells”. Moreover, the cell death entry in the test on MV3 cells (adhered MV3 cells) is reported as “little to none”; in the test on MV3 cells (detached MV3 cells), “high levels of cell death”; with M498 cells (adhered M498 cells), “die upon WGA treatment”; in the test on M498 cells (detached M498 cells), “significantly more death”.

Consider `O=C(Nc1ccccc1)Nc1ccnc(Cl)c1` [FCF, forchlorfenuron], for which, in the test on MEF cells, the “anoikis resistance acquired by DYN2 (K44A) expression” value is given as “reversed” and the caspase activation entry is given as “returned to levels seen in matched non-blebbing control cells”. For the same molecule, the “anoikis resistance (cell death adhered vs detached)” value in the test on MV3 cells (MV3, 50 μM FCF, 24 hours) was “greatly disrupted anoikis resistance”. Further, in the test with M498 cells (M498, 50 μM FCF, 24 hours), the “anoikis resistance (cell death adhered vs detached)” value was “greatly disrupted anoikis resistance”.
